Measurements taken from US20260374766A1, “METHODS FOR TREATING CANCER” (Antares Therapeutics, Inc., priority 2022, published 2026).

Experiments:
[1] = molecular target: T1, p53 Y220C mutant protein (amino acid residues 94-293) (Homo sapiens, UniProt P04637, Y220C); test: Surface Plasmon Resonance (SPR) assay, Kd_kinetic; type: binding; conditions: SPR; p53 Y220C; read-out: SPR P53 Y220C KD kinetic
T1 construct: p53 Y220C mutant protein (amino acid residues 94-293)
In short: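 Temperature held at 16 or 20 °C during Biacore 8K runs. Buffer: 50 mM Tris, pH 7.5, 100 mM NaCl, 1 mM DTT, 0.01% Brij35, 0.05% Tween-20, 1% DMSO.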

[2] = system: H1299 p53 R273H; test: Cell Proliferation Assay (CellTiter-Glo, CTG), H1299 p53 R273H (NClH1299-inducible p53 R273H); type: cell-based; conditions: Homo sapiens, NCI-H1299, 120 h, NClH1299-inducible p53 R273H cells; 5 days
In short: (§1)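 NClH1299 lines stably transduced with Tet-inducible p53 Y220C or R273H, plus NUGC3, were treated with compound for 5 days at 250-500 cells/well. IC50 derived from CellTiter-Glo luminescent signal after 10 min room-temperature incubation.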

[3] = system: H1299 p53 Y220C; test: Cell Proliferation Assay (CellTiter-Glo, CTG), H1299 p53 Y220C (NClH1299-inducible p53 Y220C); type: cell-based; conditions: Homo sapiens, NCI-H1299, 120 h, NClH1299-inducible p53 Y220C cells; 5 days
In short: as §1

[4] = molecular target: p53 Y220C (Homo sapiens, UniProt P04637, Y220C); test: Luciferase Reporter Assay (Luc), p53 response element, NClH1299 cells with inducible p53 Y220C; type: cell-based; conditions: NClH1299 cells with inducible p53 Y220C, 6 hour; for AC50: read-out: Luc P53 Y220C AC50; for Emax: 10 uM tool compound as positive control
In short: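 24 h dox pre-induction (0.5 ug/mL), then 6 h compound; One-Glo luminescent read.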

[5] = system: NUGC3 p53 Y220C; test: Cell Proliferation Assay (CellTiter-Glo, CTG), NUGC3 p53 Y220C; type: cell-based; conditions: Homo sapiens, NUGC-3, 120 h, NUGC3 cells; 5 days
In short: as §1

T1 sequence (P04637 94-293, stated change not applied): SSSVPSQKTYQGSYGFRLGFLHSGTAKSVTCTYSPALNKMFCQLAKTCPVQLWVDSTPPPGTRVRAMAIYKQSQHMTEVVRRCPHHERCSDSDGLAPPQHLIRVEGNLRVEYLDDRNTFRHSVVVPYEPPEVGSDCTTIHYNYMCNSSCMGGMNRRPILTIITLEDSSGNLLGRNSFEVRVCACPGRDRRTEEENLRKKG

SMILES | Kd [1] [nM] | IC50 [2] [nM] | IC50 [3] [nM] | AC50 [4] [nM] | Emax [4] [%] | IC50 [5] [nM]
CNC(=O)c1ccc(O)c(NCC#Cc2cc3c(N[C@@H]4CCN(C)C[C@@H]4F)cccn3c2SC(F)(F)F)c1 [Example 472] | < 10 | ≥ 10000 | < 750 | < 750 | > 90 | < 750
COc1ccc(C(=O)N[C@H](C)[C@@H](C)O)cc1NCC#Cc1cc2c(N[C@@H]3CCN(C)C[C@@H]3F)cccn2c1SC(F)(F)F [Example 473] | < 10 | ≥ 10000 | < 750 | < 750 | > 90 | < 750
COc1cc(C(=O)NC[C@H](C)O)ccc1NCC#Cc1cc2c(N[C@@H]3CCN(C)C[C@@H]3F)cccn2c1SC(F)(F)F [Example 475, 4-{[3-(8-{[(3S,4R)-3-fluoro-1-methylpiperidin-4-yl]amino}-3-[(trifluoromethyl)sulfanyl]indolizin-2-yl)prop-2-yn-1-yl]amino}-N-[(2S)-2-hydroxypropyl]-3-methoxybenzamide] | < 10 | 8000 to 10000 | < 750 | < 750 | > 90 | < 750
CNC(=O)c1ccc(O)c(NCC#Cc2cc3c(N[C@@H]4CCNC[C@@H]4F)cccn3c2SC(F)(F)F)c1 [Example 477, 3-{[3-(8-{[(3S,4R)-3-fluoropiperidin-4-yl]amino}-3-[(trifluoromethyl)sulfanyl]indolizin-2-yl)prop-2-yn-1-yl]amino}-4-hydroxy-N-methylbenzamide] | < 10 | ≥ 10000 | < 750 | < 750 | 80 to 90 | < 750
CNC(=O)c1ccc(OC)c(NCC#Cc2cc3c(N[C@@H]4CNC[C@@H]4F)cccn3c2SC(F)(F)F)c1 [Example 478] | < 10 | ≥ 10000 | < 750 | < 750 | > 90 | < 750
CNC(=O)c1cc(NCC#Cc2cc3c(N[C@@H]4CCN(C)C[C@@H]4F)cccn3c2SC(F)(F)F)c2cncn2c1 [Example 479] | < 10 | ≥ 10000 | < 750 | < 750 | > 90 | < 750
CNC(=O)c1ccc(OC)c(NCC#Cc2cc3c(N[C@@H]4CCN(C5COC5)C[C@@H]4F)cccn3c2SC(F)(F)F)c1 [Example 481, 3-{[3-(8-{[(3S,4R)-3-fluoro-1-(oxetan-3-yl)piperidin-4-yl]amino}-3-[(trifluoromethyl)sulfanyl]indolizin-2-yl)prop-2-yn-1-yl]amino}-4-methoxy-N-methylbenzamide] | < 10 | 5000 to 8000 | < 750 | < 750 | > 90 | < 750
COc1ccc(C(=O)N[C@H]2C[C@H](O)C2)cc1NCC#Cc1cc2c(N[C@@H]3CCN(C)C[C@@H]3F)cccn2c1SC(F)(F)F [Example 482] | < 10 | ≥ 10000 | < 750 | < 750 | > 90 | < 750
CNC(=O)c1cc(NCC#Cc2cc3c(N[C@@H]4CCN(C)C[C@@H]4F)cccn3c2SC(F)(F)F)c2nncn2c1 [Example 483, 8-{[3-(8-{[(3S,4R)-3-fluoro-1-methylpiperidin-4-yl]amino}-3-[(trifluoromethyl)sulfanyl]indolizin-2-yl)prop-2-yn-1-yl]amino}-N-methyl-[1,2,4]triazolo[4,3-a]pyridine-6-carboxamide] | < 10 | ≥ 10000 | < 750 | < 750 | > 90 | < 750
O=C(NC[C@@H]1COCCO1)c1ccc(NCC#Cc2cc3c(N[C@@H]4CCNC[C@@H]4F)cccn3c2SC(F)(F)F)cc1 [Example 484] | < 10 | 8000 to 10000 | < 750 | < 750 | > 90 | < 750
C[C@@H](O)CNC(=O)c1ccc(OC2COC2)c(NCC#Cc2cc3c(N[C@@H]4CCN(C)C[C@@H]4F)cccn3c2SC(F)(F)F)c1 [Example 486] | < 10 | ≥ 10000 | < 750 | < 750 | > 90 | < 750
CNC(=O)c1ccc(NCC#Cc2cc3c(N[C@@H]4CCNC[C@@H]4F)cccn3c2SC(F)(F)F)c(OC)n1 [Example 488] | < 10 | 5000 to 8000 | < 750 | < 750 | > 90 | < 750
CNC(=O)c1ccc(NCC#Cc2cc3c(N[C@@H]4CCNC[C@@H]4F)cccn3c2SC(F)(F)F)cc1 [Example 492, 4-{[3-(8-{[(3S,4R)-3-fluoropiperidin-4-yl]amino}-3-[(trifluoromethyl)sulfanyl]indolizin-2-yl)prop-2-yn-1-yl]amino}-N-methylbenzamide] | < 10 | 5000 to 8000 | < 750 | < 750 | > 90 | < 750
CNC(=O)c1ccc(NCC#Cc2cc3c(N[C@@H]4CCN(C)C[C@@H]4F)cccn3c2SC(F)(F)F)c(C(=O)NC)c1 [Example 493, 4-{[3-(8-{[(3S,4R)-3-fluoro-1-methylpiperidin-4-yl]amino}-3-[(trifluoromethyl)sulfanyl]indolizin-2-yl)prop-2-yn-1-yl]amino}-N1,N3-dimethylbenzene-1,3-dicarboxamide] | < 10 | ≥ 10000 | < 750 | < 750 | > 90 | < 750
CNC(=O)c1ccc(NCC#Cc2cc3c(N[C@@H]4CCN(C)C[C@@H]4F)cccn3c2SC(F)(F)F)c(C(=O)NC)n1 [Example 495, 3-{[3-(8-{[(3S,4R)-3-fluoro-1-methylpiperidin-4-yl]amino}-3-[(trifluoromethyl)sulfanyl]indolizin-2-yl)prop-2-yn-1-yl]amino}-N2,N6-dimethylpyridine-2,6-dicarboxamide] | < 10 | 5000 to 8000 | < 750 | < 750 | > 90 | < 750
CNC(=O)c1cnc(C(=O)NC)c(NCC#Cc2cc3c(N[C@@H]4CCN(C)C[C@@H]4F)cccn3c2SC(F)(F)F)c1 [Example 496] | < 10 | 5000 to 8000 | < 750 | < 750 | > 90 | < 750
CNC(=O)c1ccc(O[C@H]2C[C@H](O)C2)c(NCC#Cc2cc3c(N[C@@H]4CCN(C)C[C@@H]4F)cccn3c2SC(F)(F)F)c1 [Example 497, 3-{[3-(8-{[(3S,4R)-3-fluoro-1-methylpiperidin-4-yl]amino}-3-[(trifluoromethyl)sulfanyl]indolizin-2-yl)prop-2-yn-1-yl]amino}-N-methyl-4-[(1r,3r)-3-hydroxycyclobutoxy]benzamide] | < 10 | ≥ 10000 | < 750 | < 750 | > 90 | < 750
CNC(=O)c1cnc(OC)c(NCC#Cc2cc3c(N[C@@H]4CCNC[C@@H]4F)cccn3c2SC(F)(F)F)c1 [Example 498] | < 10 | ≥ 10000 | < 750 | < 750 | > 90 | < 750
